Laboratory results published in US20150011541A1, “PIPECOLATE-SULFONAMIDES FOR TREATMENT OF PSYCHIATRIC DISORDERS” (Max-Planck-Gesellschaft zur Förderung der Wissenschaften …, priority 2011, published 2015).
Like-named read-outs stand apart in the source and are kept apart here.

Assays:
[1] = target: T1, human FKBP51FK1 (Homo sapiens, UniProt Q13451); experiment: Fluorescence polarization assay, binding to FK1 domain of FKBP51; conditions: for IC50: binding affinity, fluorescence polarization assay; for inhibition at 5 µM: read-out: FKBP 51 FK1 % inhibition
T1 sequence (Q13451 42-130 limits assumed): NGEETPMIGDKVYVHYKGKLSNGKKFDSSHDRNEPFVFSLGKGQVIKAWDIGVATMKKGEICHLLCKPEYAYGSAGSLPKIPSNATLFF

[2] = target: T2, human FKBP52FK1 (Homo sapiens, UniProt Q02790); experiment: Fluorescence polarization assay, binding to FK1 domain of FKBP52; conditions: for IC50: binding affinity, fluorescence polarization assay; for inhibition at 5 µM: read-out: FKBP52 FK1 % inhibition
T2 sequence (Q02790 50-138 limits assumed): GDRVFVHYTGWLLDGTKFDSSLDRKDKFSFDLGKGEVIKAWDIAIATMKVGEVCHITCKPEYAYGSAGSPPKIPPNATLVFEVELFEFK

[3] = at a concentration of 5 μM, library testing

| Compound | IC50 [1] [µM] | IC50 [2] [µM] | also measured |
| --- | --- | --- | --- |
| 2-(3-((R)-1-((S)-1-(3-cyanophenylsulfonyl)piperidine-2-carbonyloxy)-3-(3,4-dimethoxyphen-yl)propyl)phenoxy)acetic acid [Compound 6] | 28.5 ± 9.6 | 69.9 ± 65.4 | – |
| 2-(3-((R)-1-((S)-1-(benzo[d]thiazol-5-ylsulfonyl)piperidine-2-carbonyloxy)-3-(3,4-dimethoxy phenyl)propyl)phenoxy)acetic acid [Compound 3] | 11.6 ± 1.1 | 32.5 ± 3.5 | FKBP 51 FK1 % inhibition [1, 3]: 25.5%; FKBP52 FK1 % inhibition [2, 3]: 16.1% |
| COc1ccc(CC[C@@H](OC(=O)[C@@H]2CCCCN2S(=O)(=O)c2ccc(-c3ncccn3)cc2)c2cccc(OCC(=O)O)c2)cc1OC [Compound 1, 2-(3-((R)-3-(3,4-dimethoxyphenyl)-1-((S)-1-(4-(pyrimidin-2-yl)phenylsulfonyl)piperidine-2-carbonyloxy)propyl)phenoxy)acetic acid] | 62.8 ± 10.7 | – | inhibition at 5 µM [1, 3]: 16.3%; inhibition at 5 µM [2, 3]: 15.2% |
| COc1ccc(CC[C@@H](OC(=O)[C@@H]2CCCCN2S(=O)(=O)c2cccc(Cl)c2)c2cccc(OCC(=O)O)c2)cc1OC [Compound 2] | 30.7 ± 15.7 | 32.8 ± 14.5 | inhibition at 5 µM [1]: 17.5%; inhibition at 5 µM [2]: 18% |
| COc1ccc(CC[C@@H](OC(=O)[C@@H]2CCCCN2S(=O)(=O)c2cc(Cl)cc(Cl)c2)c2cccc(OCC(=O)O)c2)cc1OC [Compound 13, 2-(3-((R)-1-((S)-1-(3,5-dichlorophenylsulfonyl)piperidine-2-carbonyloxy)-3-(3,4-dimethoxy-phenyl)propyl)phenoxy)acetic acid] | 22.6 ± 8.2 | 14.3 ± 1.8 | – |
| COc1ccc(CC[C@@H](OC(=O)[C@@H]2CCCCN2S(=O)(=O)c2cc(Cl)c(OC)c(Cl)c2)c2cccc(OCC(=O)O)c2)cc1OC [Compound 22, 2-(3-((R)-1-((S)-1-(3,5-dichloro-4-methoxyphenylsulfonyl)piperidine-2-carbonyloxy)-3-(3,4-dimethoxyphenyl)propyl)phenoxy)acetic acid] | 16.4 ± 1.7 | 17.7 ± 1.6 | – |
| COc1ccc(CC[C@@H](OC(=O)[C@@H]2CCCCN2S(=O)(=O)c2cc(Cl)c(NC(C)=O)c(Cl)c2)c2cccc(OCC(=O)O)c2)cc1OC [Compound 23, 2-(3-((R)-1-((S)-1-(4-acetamido-3,5-dichlorophenylsulfonyl)piperidine-2-carbonyloxy)-3-(3,4-dimethoxyphenyl)propyl)phenoxy)acetic acid] | 8.9 ± 0.9 | 15.6 ± 2.2 | – |
| COc1ccc(CC[C@@H](OC(=O)[C@@H]2CCCCN2S(=O)(=O)c2cc3c(c([N+](=O)[O-])c2)OCC3)c2cccc(OCC(=O)O)c2)cc1OC [Compound 25, 2-(3-((R)-3-(3,4-dimethoxyphenyl)-1-((S)-1-(7-nitro-2,3-dihydrobenzofuran-5-ylsulfonyl)piperidine-2-carbonyloxy)propyl)phenoxy)acetic acid] | 27.2 ± 3.1 | 43.9 ± 10.1 | – |
| COc1ccc(CC[C@@H](OC(=O)[C@@H]2CCCCN2S(=O)(=O)c2cc(Cl)c(O)c(Cl)c2)c2cccc(OCCN3CCOCC3)c2)cc1OC [Compound 33, (S)-((R)-3-(3,4-dimethoxyphenyl)-1-(3-(2-morpholinoethoxy)phenyl)propyl)1-(3,5-dichloro-4-hydroxyphenylsulfonyl)piperidine-2-carboxylate] | 0.456 ± 0.05 | 0.71 ± 0.1 | – |
| COc1ccc(CC[C@@H](OC(=O)[C@@H]2CCCCN2S(=O)(=O)c2cc(Cl)c(NC(C)=O)c(Cl)c2)c2cccc(OCCN3CCOCC3)c2)cc1OC [Compound 34, (S)-((R)-3-(3,4-dimethoxyphenyl)-1-(3-(2-morpholinoethoxy)phenyl)propyl)1-(4-acetamido-3,5-dichlorophenylsulfonyl)piperidine-2-carboxylate] | 12.3 ± 18.9 | 8.3 ± 6.8 | – |
| COc1ccc(CC[C@@H](OC(=O)[C@@H]2CCCCN2S(=O)(=O)c2ccc3[nH]c(=O)sc3c2)c2cccc(OCCN3CCOCC3)c2)cc1OC [Compound 35, (S)-((R)-3-(3,4-dimethoxyphenyl)-1-(3-(2-morpholinoethoxy)phenyl)propyl)1-(2-oxo-2,3-dihydrobenzo[d]thiazol-6-ylsulfonyl)piperidine-2-carboxylate] | 1.3 ± 0.13 | 2.5 ± 0.38 | – |
| COc1ccc(CC[C@@H](OC(=O)[C@@H]2CCCCN2S(=O)(=O)c2ccc(Cl)cc2)c2cccc(OCC(=O)O)c2)cc1OC [Compound 36, 2-(3-((R)-1-((S)-1-(4-chlorophenylsulfonyl)piperidine-2-carbonyloxy)-3-(3,4-dimethoxyphenyl)propyl)phenoxy)acetic acid] | – | – | inhibition at 5 µM [1]: 11.7%; inhibition at 5 µM [2]: 15.2% |
| COc1ccc(CC[C@@H](OC(=O)[C@@H]2CCCCN2S(=O)(=O)c2ccc(F)cc2)c2cccc(OCC(=O)O)c2)cc1OC [Compound 38, 2-(3-((R)-3-(3,4-dimethoxyphenyl)-1-((S)-1-(4-fluorophenylsulfonyl)piperidine-2-carbonyloxy)propyl)phenoxy)acetic acid] | – | – | inhibition at 5 µM [1, 3]: 4.3%; inhibition at 5 µM [2, 3]: 6.6% |
| COc1ccc(CC[C@@H](OC(=O)[C@@H]2CCCCN2S(=O)(=O)c2ccc(C(F)(F)F)cc2)c2cccc(OCC(=O)O)c2)cc1OC [Compound 40, 2-(3-((R)-3-(3,4-dimethoxyphenyl)-1-((S)-1-(4-(trifluoromethyl)phenylsulfonyl)piperidine-2-carbonyloxy)propyl)phenoxy)acetic acid] | – | – | inhibition at 5 µM [1, 3]: 8.9%; inhibition at 5 µM [2, 3]: 12.3% |
| COc1ccc(CC[C@@H](OC(=O)[C@@H]2CCCCN2S(=O)(=O)c2ccc(Oc3ccccc3)cc2)c2cccc(OCC(=O)O)c2)cc1OC [Compound 41, 2-(3-((R)-3-(3,4-dimethoxyphenyl)-1-((S)-1-(4-phenoxyphenylsulfonyl)piperidine-2-carbonyloxy)propyl)phenoxy)acetic acid] | – | – | inhibition at 5 µM [1, 3]: 7.2%; inhibition at 5 µM [2, 3]: 15.2% |
| COc1ccc(CC[C@@H](OC(=O)[C@@H]2CCCCN2S(=O)(=O)c2cccnc2)c2cccc(OCC(=O)O)c2)cc1OC [Compound 42, 2-(3-((R)-3-(3,4-dimethoxyphenyl)-1-((S)-1-(pyridin-3-ylsulfonyl)piperidine-2-carbonyloxy)propyl)phenoxy)acetic acid] | – | – | inhibition at 5 µM [1]: 6.6%; inhibition at 5 µM [2]: 9.5% |
| COc1ccc(CC[C@@H](OC(=O)[C@@H]2CCCCN2S(=O)(=O)c2ccc(Oc3ccccc3)nc2)c2cccc(OCC(=O)O)c2)cc1OC [Compound 43, 2-(3-((R)-3-(3,4-dimethoxyphenyl)-1-((S)-1-(6-phenoxypyridin-3-ylsulfonyl)piperidine-2-carbonyloxy)propyl)phenoxy)acetic acid] | – | – | inhibition at 5 µM [1, 3]: 3.7%; inhibition at 5 µM [2, 3]: 11.4% |
| COc1ccc(CC[C@@H](OC(=O)[C@@H]2CCCCN2S(=O)(=O)c2ccc(-c3ccccc3)nc2)c2cccc(OCC(=O)O)c2)cc1OC [Compound 44, 2-(3-((R)-3-(3,4-dimethoxyphenyl)-1-((S)-1-(6-phenylpyridin-3-ylsulfonyl)piperidine-2-carbonyloxy)propyl)phenoxy)acetic acid] | – | – | inhibition at 5 µM [1, 3]: 2.6%; inhibition at 5 µM [2, 3]: 8.5% |

Further lines, with some results ahead:

| IC50 [1] [µM] | IC50 [2] [µM] | Compound | also measured |
| --- | --- | --- | --- |
| 67.1 ± 12.1 | – | COc1ccc(CC[C@@H](OC(=O)[C@@H]2CCCCN2S(=O)(=O)c2cc3ccccc3s2)c2cccc(OCC(=O)O)c2)cc1OC [Compound 5] | inhibition at 5 µM [1, 3]: 12.4%; inhibition at 5 µM [2, 3]: 15.2% |
| 18.2 ± 8.8 | 37.3 ± 13.6 | COc1ccc(CC[C@@H](OC(=O)[C@@H]2CCCCN2S(=O)(=O)c2cccc(F)c2)c2cccc(OCC(=O)O)c2)cc1OC [Compound 11, 2-(3-((R)-3-(3,4-dimethoxyphenyl)-1-((S)-1-(3-fluorophenylsulfonyl)piperidine-2-carbonyloxy)propyl)phenoxy)acetic acid] | – |
| 3.06 ± 0.25 | 17.1 ± 11 | COc1ccc(CC[C@@H](OC(=O)[C@@H]2CCCCN2S(=O)(=O)c2cccc(Br)c2)c2cccc(OCC(=O)O)c2)cc1OC [Compound 12, 2-(3-((R)-1-((S)-1-(3-bromophenylsulfonyl)piperidine-2-carbonyloxy)-3-(3,4-dimethoxyphenyl)propyl)phenoxy)acetic acid] | – |
| 18.8 ± 2.4 | 20.2 ± 3.5 | COc1ccc(S(=O)(=O)N2CCCC[C@H]2C(=O)O[C@H](CCc2ccc(OC)c(OC)c2)c2cccc(OCC(=O)O)c2)cc1Cl [Compound 16, 2-(3-((R)-1-((S)-1-(3-chloro-4-methoxyphenylsulfonyl)piperidine-2-carbonyloxy)-3-(3,4-dimethoxyphenyl)propyl)phenoxy)aceticacid] | – |
| 15.1 ± 1.4 | 56.6 ± 12.2 | COc1ccc(CC[C@@H](OC(=O)[C@@H]2CCCCN2S(=O)(=O)c2cc(Cl)c(O)c(Cl)c2)c2cccc(OCC(=O)O)c2)cc1OC [Compound 21, 2-(3-((R)-1-((S)-1-(3,5-dichloro-4-hydroxyphenylsulfonyl)piperidine-2-carbonyloxy)-3-(3,4-dimethoxyphenyl)propyl)phenoxy)acetic acid] | – |
| 18.4 ± 1.4 | 26.5 ± 4.9 | COc1ccc(CC[C@@H](OC(=O)[C@@H]2CCCCN2S(=O)(=O)c2ccc3nc(C)sc3c2)c2cccc(OCC(=O)O)c2)cc1OC [Compound 27, 2-(3-((R)-3-(3,4-dimethoxyphenyl)-1-((S)-1-(2-methylbenzo[d]thiazol-6-ylsulfonyl)piperidine-2-carbonyloxy)propyl)phenoxy)acetic acid] | – |
| 14.7 ± 1.1 | 66.5 ± 27.1 | COc1ccc(CC[C@@H](OC(=O)[C@@H]2CCCCN2S(=O)(=O)c2ccc3[nH]c(=O)sc3c2)c2cccc(OCC(=O)O)c2)cc1OC [Compound 28, 2-(3-((R)-3-(3,4-dimethoxyphenyl)-1-((S)-1-(2-oxo-2,3-dihydrobenzo[d]thiazol-6-ylsulfonyl)piperidine-2-carbonyloxy)propyl)phenoxy)aceticacid] | – |
